In patent publication US20260191835A1, “COMBINATIONS COMPRISING A MENIN-MLL INHIBITOR AND AT LEAST ONE OTHER THERAPEUTIC AGENT” (JANSSEN PHARMACEUTICA NV, priority 2022, published 2026):

System: MOLM-13 cells
Assay: In vitro proliferation (Cell Titer Glo, 6 days) of Compound 51 in combination with gilteritinib, midostaurin, idarubicin or decitabine, MOLM-13
Type: cell-based, human
Set-up: key to maxR call (synergy/antagonism), combination with Gilteritinib on MOLM-13 cell proliferation / Synergy/antagonism call (maxR test), MOLM-13 Cell Proliferation: synergy is indicated by “**”; antagonism is indicated by “*”; no asterisk: absence of any asterisk indicates an additive effect
Procedure: 3) In Vitro Proliferation—Menin-MLL Inhibitor in Combination with FLT3 Inhibitor (Gilteritinib or Midostaurin), DNA Intercalating Agent (Idarubicin) or Hypomethylating Agent (Decitabine)
The effect of Compound 51 in combination with gilteritinib, midostaurin, idarubicin or decitabine was determined in proliferation assays.
AML cell lines MOLM-13, OCI-AML3 and MV4-11 were purchased from DSMZ. MOLM-13 were grown in RPMI medium supplemented with 10% Fetal Bovine Serum (FBS) and 1% penicillin/streptomycin. MV4-11 cells were grown in IMDM medium supplemented with 10% FBS and 1% penicillin/streptomycin. OCI-AML3 cells were cultured in 80-90% alpha-MEM (with or without ribo- and deoxyribonucleosides)+10-20% FBS. All cell lines were cultured at 37° C. in 5% CO2 atmosphere.
AML cell lines (10-20×10^3 cells/well) were seeded in 96-well plates and grown for 6 days in serum (10%)-containing medium in the presence or absence of inhibitors at the indicated concentrations. Proliferation was analyzed by means of a Cell Titer Glo assay using the […] (Promega, Madison, WI, USA), according to the manufacturer's instructions. Data are mean with standard deviation from two to four independent experiments in technical triplicates.
R-based Biochemically Intuitive Generalized Loewe (BIGL) model implemented with a highest single agent (HSA) null model. Specifically, the BIGL methodology was applied to calculate drug-drug interactions (Van der Borght, K., Tourny, A., Bagdziunas, R. et al. BIGL: Biochemically Intuitive Generalized Loewe null model for prediction of the expected combined effect compatible with partial agonism and antagonism. Sci Rep 7, 17935 (2017); Thas, O., Tourny, A., Verbist, B., Hawinkel, S., Nazarov, M., Mutambanengwe, K., & Bijnens, L. Statistical detection of synergy: New methods and a comparative study. Pharmaceutical Statistics (2021)).
Synergy matrix results of the BIGL analysis of the cell line data with HSA as mean model calculated on the basis of the cellular metabolic activity using Cell Titer-Glo assay. Bootstrap confidence intervals are indicated. Effect sizes and their confidence intervals are shown. […] No significant average effect if zero is included in the interval.

[1] = Compound 51 0.05 μm, Gilteritinib 0.01 μM
[2] = Compound 51 0.1 μm + Decitabine 0.015 μM
[3] = Compound 51 0.1 μm + Decitabine 0.15 μM
[4] = Compound 51 0.1 μm + Idarubicin 0.001 μM
[5] = Compound 51 0.1 μm + Midostaurin 0.006 μM
[6] = Compound 51 0.1 μm + Midostaurin 0.025 μM
[7] = Compound 51 0.1 μm, Gilteritinib 0.01 μM
[8] = Compound 51 1 μm + Decitabine 0.15 μM
[9] = Compound 51 1 μm + Idarubicin 0.001 μM
[10] = Compound 51 1 μm + Midostaurin 0.006 μM
[11] = Compound 51 1 μm + Midostaurin 0.025 μM
[12] = Compound 51 10 μm + Decitabine 0.015 μM
[13] = Compound 51 10 μm + Decitabine 0.15 μM
[14] = Compound 51 10 μm, Gilteritinib 0.01 μM
[15] = Compound 51 10 μm, Gilteritinib 0.05 μM

CC(=O)N1CCC(CN2CC[C@@H](Cc3cn(-c4ccc(F)cc4C(=O)N(C)C(C)C)c4cncc(C)c34)C2)CC1 [Compound 51]
Effect size (BIGL, HSA null model), combination with Gilteritinib on MOLM-13 cell proliferation (Compound 51 0.05 μm, Gilteritinib 0.005 μM): −0.14
Effect size (BIGL, HSA null model), combination with Gilteritinib on MOLM-13 cell proliferation [1]: −0.32
maxR call (synergy/antagonism), combination with Gilteritinib on MOLM-13 cell proliferation [1]: **
Effect size (BIGL, HSA null model), combination with Gilteritinib on MOLM-13 cell proliferation (Compound 51 0.05 μm, Gilteritinib 0.05 μM): −0.22
Effect size (BIGL, HSA null model), combination with Gilteritinib on MOLM-13 cell proliferation (Compound 51 0.05 μm, Gilteritinib 0.1 μM): −0.14
Effect size (BIGL, HSA null model), combination with Gilteritinib on MOLM-13 cell proliferation (Compound 51 0.05 μm, Gilteritinib 1 μM): −0.01
Effect size (BIGL, HSA null model), MOLM-13 Cell Proliferation (Compound 51 0.1 μm + Decitabine 0.0015 μM): −0.01
Effect size (BIGL, HSA null model), MOLM-13 Cell Proliferation [2]: −0.33
Synergy/antagonism call (maxR test), MOLM-13 Cell Proliferation [2]: **
Effect size (BIGL, HSA null model), MOLM-13 Cell Proliferation [3]: −0.35
Synergy/antagonism call (maxR test), MOLM-13 Cell Proliferation [3]: **
Effect size (BIGL, HSA null model), MOLM-13 Cell Proliferation (Compound 51 0.1 μm + Decitabine 1.5 μM): −0.05
Effect size (BIGL, HSA null model), MOLM-13 Cell Proliferation (Compound 51 0.1 μm + Decitabine 3 μM): −0.03
Effect size (BIGL, HSA null model), MOLM-13 Cell Proliferation (Compound 51 0.1 μm + Idarubicin 0.0005 μM): −0.13
Effect size (BIGL, HSA null model), MOLM-13 Cell Proliferation [4]: −0.42
Synergy/antagonism call (maxR test), MOLM-13 Cell Proliferation [4]: **
Effect size (BIGL, HSA null model), MOLM-13 Cell Proliferation (Compound 51 0.1 μm + Idarubicin 0.0025 μM): −0.23
Effect size (BIGL, HSA null model), MOLM-13 Cell Proliferation (Compound 51 0.1 μm + Idarubicin 0.005 μM): −0.11
Effect size (BIGL, HSA null model), MOLM-13 Cell Proliferation (Compound 51 0.1 μm + Idarubicin 0.05 μM): 0.02
Effect size (BIGL, HSA null model), MOLM-13 Cell Proliferation (Compound 51 0.1 μm + Idarubicin 0.5 μM): 0.02
Effect size (BIGL, HSA null model), MOLM-13 Cell Proliferation (Compound 51 0.1 μm + Midostaurin 0.0012 μM): −0.08
Effect size (BIGL, HSA null model), MOLM-13 Cell Proliferation [5]: −0.23
Synergy/antagonism call (maxR test), MOLM-13 Cell Proliferation [5]: **
Effect size (BIGL, HSA null model), MOLM-13 Cell Proliferation [6]: −0.17
Synergy/antagonism call (maxR test), MOLM-13 Cell Proliferation [6]: **
Effect size (BIGL, HSA null model), MOLM-13 Cell Proliferation (Compound 51 0.1 μm + Midostaurin 0.05 μM): −0.08
Effect size (BIGL, HSA null model), MOLM-13 Cell Proliferation (Compound 51 0.1 μm + Midostaurin 0.1 μM): −0.04
Effect size (BIGL, HSA null model), MOLM-13 Cell Proliferation (Compound 51 0.1 μm + Midostaurin 0.5 μM): −0.02
Effect size (BIGL, HSA null model), combination with Gilteritinib on MOLM-13 cell proliferation (Compound 51 0.1 μm, Gilteritinib 0.0005 μM): −0.03
Effect size (BIGL, HSA null model), combination with Gilteritinib on MOLM-13 cell proliferation (Compound 51 0.1 μm, Gilteritinib 0.005 μM): −0.13
Effect size (BIGL, HSA null model), combination with Gilteritinib on MOLM-13 cell proliferation [7]: −0.3
maxR call (synergy/antagonism), combination with Gilteritinib on MOLM-13 cell proliferation [7]: **
Effect size (BIGL, HSA null model), combination with Gilteritinib on MOLM-13 cell proliferation (Compound 51 0.1 μm, Gilteritinib 0.05 μM): −0.24
Effect size (BIGL, HSA null model), combination with Gilteritinib on MOLM-13 cell proliferation (Compound 51 0.1 μm, Gilteritinib 0.1 μM): −0.14
Effect size (BIGL, HSA null model), combination with Gilteritinib on MOLM-13 cell proliferation (Compound 51 0.1 μm, Gilteritinib 1 μM): −0.01
Effect size (BIGL, HSA null model), MOLM-13 Cell Proliferation (Compound 51 1 μm + Decitabine 0.0015 μM): 0.03
Effect size (BIGL, HSA null model), MOLM-13 Cell Proliferation (Compound 51 1 μm + Decitabine 0.015 μM): −0.1
Effect size (BIGL, HSA null model), MOLM-13 Cell Proliferation [8]: −0.38
Synergy/antagonism call (maxR test), MOLM-13 Cell Proliferation [8]: **
Effect size (BIGL, HSA null model), MOLM-13 Cell Proliferation (Compound 51 1 μm + Idarubicin 0.0005 μM): −0.08
Effect size (BIGL, HSA null model), MOLM-13 Cell Proliferation [9]: −0.38
Synergy/antagonism call (maxR test), MOLM-13 Cell Proliferation [9]: **
Effect size (BIGL, HSA null model), MOLM-13 Cell Proliferation (Compound 51 1 μm + Idarubicin 0.0025 μM): −0.24
Effect size (BIGL, HSA null model), MOLM-13 Cell Proliferation (Compound 51 1 μm + Idarubicin 0.005 μM): −0.11
Effect size (BIGL, HSA null model), MOLM-13 Cell Proliferation (Compound 51 1 μm + Idarubicin 0.05 μM): 0.02
Effect size (BIGL, HSA null model), MOLM-13 Cell Proliferation (Compound 51 1 μm + Idarubicin 0.5 μM): 0.02
Effect size (BIGL, HSA null model), MOLM-13 Cell Proliferation (Compound 51 1 μm + Midostaurin 0.0012 μM): −0.03
Effect size (BIGL, HSA null model), MOLM-13 Cell Proliferation [10]: −0.18
Synergy/antagonism call (maxR test), MOLM-13 Cell Proliferation [10]: **
Effect size (BIGL, HSA null model), MOLM-13 Cell Proliferation [11]: −0.19
Synergy/antagonism call (maxR test), MOLM-13 Cell Proliferation [11]: **
Effect size (BIGL, HSA null model), MOLM-13 Cell Proliferation (Compound 51 1 μm + Midostaurin 0.05 μM): −0.08
Effect size (BIGL, HSA null model), MOLM-13 Cell Proliferation (Compound 51 1 μm + Midostaurin 0.1 μM): −0.04
Effect size (BIGL, HSA null model), MOLM-13 Cell Proliferation (Compound 51 1 μm + Midostaurin 0.5 μM): −0.02
Effect size (BIGL, HSA null model), combination with Gilteritinib on MOLM-13 cell proliferation (Compound 51 1 μm, Gilteritinib 0.0005 μM): 0.03
Effect size (BIGL, HSA null model), combination with Gilteritinib on MOLM-13 cell proliferation (Compound 51 1 μm, Gilteritinib 0.005 μM): −0.1
Effect size (BIGL, HSA null model), combination with Gilteritinib on MOLM-13 cell proliferation (Compound 51 1 μm, Gilteritinib 0.01 μM): −0.22
Effect size (BIGL, HSA null model), combination with Gilteritinib on MOLM-13 cell proliferation (Compound 51 1 μm, Gilteritinib 0.05 μM): −0.25
Effect size (BIGL, HSA null model), combination with Gilteritinib on MOLM-13 cell proliferation (Compound 51 1 μm, Gilteritinib 0.1 μM): −0.14
Effect size (BIGL, HSA null model), combination with Gilteritinib on MOLM-13 cell proliferation (Compound 51 1 μm, Gilteritinib 1 μM): −0.01
Effect size (BIGL, HSA null model), MOLM-13 Cell Proliferation (Compound 51 10 μm + Decitabine 0.0015 μM): −0.06
Effect size (BIGL, HSA null model), MOLM-13 Cell Proliferation [12]: −0.16
Synergy/antagonism call (maxR test), MOLM-13 Cell Proliferation [12]: **
Effect size (BIGL, HSA null model), MOLM-13 Cell Proliferation [13]: −0.38
Synergy/antagonism call (maxR test), MOLM-13 Cell Proliferation [13]: **
Effect size (BIGL, HSA null model), MOLM-13 Cell Proliferation (Compound 51 10 μm + Decitabine 1.5 μM): −0.05
Effect size (BIGL, HSA null model), MOLM-13 Cell Proliferation (Compound 51 10 μm + Decitabine 3 μM): −0.03
Effect size (BIGL, HSA null model), combination with Gilteritinib on MOLM-13 cell proliferation (Compound 51 10 μm, Gilteritinib 0.0005 μM): −0.05
Effect size (BIGL, HSA null model), combination with Gilteritinib on MOLM-13 cell proliferation (Compound 51 10 μm, Gilteritinib 0.005 μM): −0.17
Effect size (BIGL, HSA null model), combination with Gilteritinib on MOLM-13 cell proliferation [14]: −0.26
maxR call (synergy/antagonism), combination with Gilteritinib on MOLM-13 cell proliferation [14]: **
Effect size (BIGL, HSA null model), combination with Gilteritinib on MOLM-13 cell proliferation [15]: −0.27
maxR call (synergy/antagonism), combination with Gilteritinib on MOLM-13 cell proliferation [15]: **
Effect size (BIGL, HSA null model), combination with Gilteritinib on MOLM-13 cell proliferation (Compound 51 10 μm, Gilteritinib 0.1 μM): −0.14
Effect size (BIGL, HSA null model), combination with Gilteritinib on MOLM-13 cell proliferation (Compound 51 10 μm, Gilteritinib 1 μM): −0.01
combination effect on proliferation at low doses of Midostaurin (in combination with Midostaurin 6 to 25 nM, MOLM-13): synergized
combination effect on proliferation (cytotoxicity) (in combination with decitabine, MOLM-13, 6-day CellTiter-Glo matrix): synergistically cytotoxic
combination effect on proliferation at low doses of gilteritinib (in combination with gilteritinib 500 pM, MOLM-13): synergistic effect
combination effect on proliferation (cytotoxicity) (in combination with gilteritinib, MOLM-13, 6-day CellTiter-Glo matrix): not antagonistically cytotoxic
combination effect on proliferation (cytotoxicity) (in combination with idarubicin, MOLM-13, 6-day Cell Titer-Glo matrix): synergistically cytotoxic
combination effect on proliferation (cytotoxicity) (in combination with midostaurin, MOLM-13, 6-day CellTiter-Glo matrix): not antagonistically cytotoxic
